Active and inactive are the calls of the source. No cut-off for these calls is given here.
Key:
HepG2 [1] = assay: Cytotoxicity against human HepG2 cells assessed as reduction in cell viability at 10 to 20 uM by MTT assay; format: cell-based; conditions: hepg2, 20 µM, dose 10-20 µM
Mus musculus [2] = assay: Hypolipidemic activity in tyloxapol-induced Kunming mouse model of hyperlipidemia assessed as reduction in fatty liver phenotype at 100 mg/kg, po measured after 24 hrs; format: functional, organism-based
Mus musculus [3] = assay: In vivo induction of AMPK in tyloxapol-induced Kunming mouse model of hyperlipidemia assessed as increase in AMPKalpha phosphorylation in liver at 100 mg/kg, po measured after 24 hrs by Western blot analysis; format: functional, organism-based
Mus musculus [4] = assay: Hypolipidemic activity in tyloxapol-induced Kunming mouse model of hyperlipidemia assessed as liver index at 100 mg/kg, po measured after 24 hrs (reference value: 65.00 +/- 0.87); format: functional
Mus musculus [5] = assay: In vivo effect on PPAR signaling in tyloxapol-induced Kunming mouse model of hyperlipidemia assessed as increase in PPARalpha expression in white adipose tissue at 100 mg/kg, po measured after 24 hrs by Western blot analysis; format: functional, organism-based
Mus musculus [6] = assay: In vivo induction of AMPK in tyloxapol-induced Kunming mouse model of hyperlipidemia assessed as increase in CPT-1A phosphorylation in white adipose tissue at 100 mg/kg, po measured after 24 hrs by Western blot analysis; format: functional, organism-based
Mus musculus [7] = assay: Hypolipidemic activity in tyloxapol-induced Kunming mouse model of hyperlipidemia assessed as kidney index at 100 mg/kg, po measured after 24 hrs (reference value: 11.20 +/- 0.58); format: functional
Mus musculus [8] = assay: In vivo induction of AMPK in tyloxapol-induced Kunming mouse model of hyperlipidemia assessed as decrease in SREBP1-C expression in white adipose tissue at 100 mg/kg, po measured after 24 hrs by Western blot analysis; format: functional, organism-based
Mus musculus [9] = assay: Hypolipidemic activity in tyloxapol-induced Kunming mouse model of hyperlipidemia assessed as reduction in serum LDL level at 100 mg/kg, po measured after 24 hrs; format: functional, organism-based
Mus musculus [10] = assay: In vivo induction of AMPK in tyloxapol-induced Kunming mouse model of hyperlipidemia assessed as decrease in FAS expression in liver at 100 mg/kg, po measured after 24 hrs by Western blot analysis; format: functional, organism-based
Mus musculus [11] = assay: In vivo induction of AMPK in tyloxapol-induced Kunming mouse model of hyperlipidemia assessed as increase in AMPKalpha phosphorylation in white adipose tissue at 100 mg/kg, po measured after 24 hrs by Western blot analysis; format: functional, organism-based
Mus musculus [12] = assay: In vivo effect on PPAR signaling in tyloxapol-induced Kunming mouse model of hyperlipidemia assessed as decrease in PPARgamma expression in white adipose tissue at 100 mg/kg, po measured after 24 hrs by Western blot analysis; format: functional, organism-based
Mus musculus [13] = assay: In vivo induction of AMPK in tyloxapol-induced Kunming mouse model of hyperlipidemia assessed as decrease in SREBP1-C expression in liver at 100 mg/kg, po measured after 24 hrs by Western blot analysis; format: functional, organism-based
Mus musculus [14] = assay: Hypolipidemic activity in tyloxapol-induced Kunming mouse model of hyperlipidemia assessed as perirenal white adipose tissue index at 100 mg/kg, po measured after 24 hrs (reference value: 18.14 +/- 1.44); format: functional
Mus musculus [15] = assay: Hypolipidemic activity in tyloxapol-induced Kunming mouse model of hyperlipidemia assessed as reduction in serum ALT level at 100 mg/kg, po measured after 24 hrs; format: functional, organism-based
Mus musculus [16] = assay: In vivo induction of AMPK in tyloxapol-induced Kunming mouse model of hyperlipidemia assessed as increase in ACC phosphorylation in white adipose tissue at 100 mg/kg, po measured after 24 hrs by Western blot analysis; format: functional, organism-based
Mus musculus [17] = assay: In vivo effect on PPAR signaling in tyloxapol-induced Kunming mouse model of hyperlipidemia assessed as decrease in PPARgamma expression in liver at 100 mg/kg, po measured after 24 hrs by Western blot analysis; format: functional, organism-based
Mus musculus [18] = assay: In vivo effect on PPAR signaling in tyloxapol-induced Kunming mouse model of hyperlipidemia assessed as decrease in PPARbeta expression in white adipose tissue at 100 mg/kg, po measured after 24 hrs by Western blot analysis; format: functional, organism-based
Mus musculus [19] = assay: In vivo effect on PPAR signaling in tyloxapol-induced Kunming mouse model of hyperlipidemia assessed as increase in mTOR phosphorylation in liver at 100 mg/kg, po measured after 24 hrs by Western blot analysis; format: functional, organism-based
Mus musculus [20] = assay: Hypolipidemic activity in tyloxapol-induced Kunming mouse model of hyperlipidemia assessed as spleen index at 100 mg/kg, po measured after 24 hrs (reference value: 3.87 +/- 0.05); format: functional
Mus musculus [21] = assay: Hypolipidemic activity in tyloxapol-induced Kunming mouse model of hyperlipidemia assessed as reduction in serum IL6 level at 100 mg/kg, po measured after 24 hrs; format: functional, organism-based
Mus musculus [22] = assay: Hypolipidemic activity in tyloxapol-induced Kunming mouse model of hyperlipidemia assessed as reduction in lipid level in liver at 100 mg/kg, po measured after 24 hrs by Oil Red O staining based assay; format: functional, organism-based
Mus musculus [23] = assay: Hypolipidemic activity in tyloxapol-induced Kunming mouse model of hyperlipidemia assessed as reduction in serum total cholesterol level at 100 mg/kg, po measured after 24 hrs; format: functional, organism-based
Mus musculus [24] = assay: In vivo induction of AMPK in tyloxapol-induced Kunming mouse model of hyperlipidemia assessed as increase in ACC phosphorylation in liver at 100 mg/kg, po measured after 24 hrs by Western blot analysis; format: functional, organism-based
Mus musculus [25] = assay: Hypolipidemic activity in tyloxapol-induced Kunming mouse model of hyperlipidemia assessed as increase in appearance of hepatic lobules at 100 mg/kg, po measured after 24 hrs by Oil Red O staining based assay; format: functional, organism-based
Mus musculus [26] = assay: Hypolipidemic activity in tyloxapol-induced Kunming mouse model of hyperlipidemia assessed as reduction in serum triglyceride level at 100 mg/kg, po measured after 24 hrs; format: functional, organism-based
Mus musculus [27] = assay: In vivo induction of AMPK in tyloxapol-induced Kunming mouse model of hyperlipidemia assessed as increase in CPT-1A phosphorylation in liver at 100 mg/kg, po measured after 24 hrs by Western blot analysis; format: functional, organism-based
Mus musculus [28] = assay: In vivo induction of AMPK in tyloxapol-induced Kunming mouse model of hyperlipidemia assessed as decrease in FAS expression in white adipose tissue at 100 mg/kg, po measured after 24 hrs by Western blot analysis; format: functional, organism-based
Mus musculus [29] = assay: Hypolipidemic activity in tyloxapol-induced Kunming mouse model of hyperlipidemia assessed as reduction in serum AST level at 100 mg/kg, po measured after 24 hrs; format: functional, organism-based
Mus musculus [30] = assay: In vivo effect on PPAR signaling in tyloxapol-induced Kunming mouse model of hyperlipidemia assessed as increase in PPARbeta expression in liver at 100 mg/kg, po measured after 24 hrs by Western blot analysis; format: functional, organism-based
Mus musculus [31] = assay: In vivo effect on PPAR signaling in tyloxapol-induced Kunming mouse model of hyperlipidemia assessed as increase in PPARalpha expression in liver at 100 mg/kg, po measured after 24 hrs by Western blot analysis; format: functional, organism-based
Mus musculus [32] = assay: In vivo induction of AMPK in tyloxapol-induced Kunming mouse model of hyperlipidemia assessed as increase in AKT phosphorylation in white adipose tissue at 100 mg/kg, po measured after 24 hrs by Western blot analysis; format: functional, organism-based
Mus musculus [33] = assay: In vivo effect on PPAR signaling in tyloxapol-induced Kunming mouse model of hyperlipidemia assessed as increase in mTOR phosphorylation in white adipose tissue at 100 mg/kg, po measured after 24 hrs by Western blot analysis; format: functional, organism-based
Mus musculus [34] = assay: Hypolipidemic activity in tyloxapol-induced Kunming mouse model of hyperlipidemia assessed as epididymis white adipose tissue index at 100 mg/kg, po measured after 24 hrs (reference value: 23.43 +/- 3.10); format: functional
Mus musculus [35] = assay: In vivo induction of AMPK in tyloxapol-induced Kunming mouse model of hyperlipidemia assessed as increase in AKT phosphorylation in liver at 100 mg/kg, po measured after 24 hrs by Western blot analysis; format: functional, organism-based
3T3-L1 [36] = assay: Hypolipidemic activity in mouse 3T3-L1 mature adipocytes assessed as reduction in lipid content at 10 uM by Oil Red O staining based assay relative to control; format: functional; design: scale not given: the % may be the effect or the level left
3T3-L1 [37] = assay: Hypolipidemic activity in mouse 3T3-L1 preadipocytes assessed as reduction in lipid content at 10 uM by Oil Red O staining based assay relative to control; format: functional; design: scale not given: the % may be the effect or the level left
HepG2 [38] = assay: Hypolipidemic activity in oleic, palmitic, linoleic and arachidonic acid 29:47:18:6 (v/v)-induced hyperlipidemia in human HepG2 cells assessed as reduction in lipid content at 10 uM by Oil Red O staining based assay relative to control; format: functional; design: scale not given: the % may be the effect or the level left
HepG2 [39] = assay: Activation of AMPK in oleic, palmitic, linoleic and arachidonic acid 29:47:18:6 (v/v)-induced human HepG2 cells assessed as increase in ACC phosphorylation by Western blot; conditions: filed as activator
HepG2 [40] = assay: Activation of AMPK in oleic, palmitic, linoleic and arachidonic acid 29:47:18:6 (v/v)-induced human HepG2 cells assessed as increase in AMPK phosphorylation by Western blot; conditions: filed as activator

Row | Compound | Activity (HepG2 [1]) | Activity (Mus musculus [2]) | Activity (Mus musculus [3]) | Activity_index (Mus musculus [4]) | Activity (Mus musculus [5]) | Activity (Mus musculus [6]) | Activity_index (Mus musculus [7]) | Activity (Mus musculus [8]) | Activity (Mus musculus [9]) | Activity (Mus musculus [10]) | Activity (Mus musculus [11]) | Activity (Mus musculus [12]) | Activity (Mus musculus [13]) | Activity_index (Mus musculus [14]) | Activity (Mus musculus [15]) | Activity (Mus musculus [16]) | Activity (Mus musculus [17]) | Activity (Mus musculus [18]) | Activity (Mus musculus [19]) | Activity_index (Mus musculus [20]) | further results
1 | O=C(/C=C/c1ccc(O)cc1)c1c(O)cc(O)cc1O [4,2',4',6'-TETRAHYDROXYCHALCONE] | Non-Toxic |  |  |  |  |  |  |  |  |  |  |  |  |  |  |  |  |  |  |  | 
2 | CC(C)OC(=O)C(C)(C)Oc1ccc(C(=O)c2ccc(Cl)cc2)cc1 [FENOFIBRATE] |  | Active | Active | 56.59 | Active | Active | 9.65 | Active | Active | Active | Active | Active | Active | 14.55 | Active | Active | Active | Active | Active | 2.85 | Activity (Mus musculus [21]): Active; Activity (Mus musculus [22]): Active; Activity (Mus musculus [23]): Active; Activity (Mus musculus [24]): Active; Activity (Mus musculus [25]): Active; Activity (Mus musculus [26]): Active; Activity (Mus musculus [27]): Active; Activity (Mus musculus [28]): Active; Activity (Mus musculus [29]): Active; Activity (Mus musculus [30]): Active; Activity (Mus musculus [31]): Active; Activity (Mus musculus [32]): Active; Activity (Mus musculus [33]): Active; Activity_index (Mus musculus [34]): 15.43; Activity (Mus musculus [35]): Active
3 | CC(C)=CCc1c(O)cc(O)c(C(=O)/C=C/c2ccc(O)cc2)c1O [DEMETHYLXANTHOHUMOL] | Non-Toxic |  |  |  |  |  |  |  |  |  |  |  |  |  |  |  |  |  |  |  | 
4 | CC[C@H](C)C(=O)O[C@H]1C[C@@H](C)C=C2C=C[C@H](C)[C@H](CC[C@@H]3C[C@@H](O)CC(=O)O3)[C@H]21 [LOVASTATIN] |  |  |  |  |  |  |  |  |  |  |  |  |  |  |  |  |  |  |  |  | Activity (3T3-L1 [36]): 47.2%; Activity (3T3-L1 [37]): 67.14%; Activity (HepG2 [38]): 41.17%
5 | NC(=O)c1ncn([C@@H]2O[C@H](CO)[C@@H](O)[C@H]2O)c1N [ACADESINE] |  | Active | Active | 57.41 | Active | Active | 8.64 | Active | Active | Active | Active | Active | Active | 15.94 | Active | Active | Active | Active | Active | 3.01 | Activity (Mus musculus [21]): Active; Activity (HepG2 [39]): Active; Activity (Mus musculus [22]): Active; Activity (HepG2 [40]): Active; Activity (Mus musculus [23]): Active; Activity (Mus musculus [24]): Active; Activity (Mus musculus [25]): Active; Activity (Mus musculus [26]): Active; Activity (Mus musculus [27]): Active; Activity (Mus musculus [28]): Active; Activity (Mus musculus [29]): Active; Activity (Mus musculus [30]): Active; Activity (Mus musculus [31]): Active; Activity (Mus musculus [32]): Active; Activity (Mus musculus [33]): Active; Activity_index (Mus musculus [34]): 20.09; Activity (Mus musculus [35]): Active
